Test results reported in the supplement of paper PMC8967900.

Each molecule was assayed on ALL-PO (assay: selective drug sensitivity score (sDSS, relative to normal bone marrow) (sDSS (score)); higher = more potent and effective on the cell line relative to normal bone marrow cells). Details: 72 h.
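Note: ALL cell lines in 384-well plates, five doses spanning 10,000-fold, each plate scaled between vehicle and 100 µmol/L benzalkonium chloride controls, sDSS an adapted area-under-curve metric.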

Compared with Nc1nc2[nH]cnc2c(=S)[nH]1 [Thioguanine] (top concentration 10000 nM), CS(=O)(=O)c1ccc(-c2cnc(N)c(C(=O)Nc3ccccc3)n2)cc1 [VE-821] (top concentration 10000 nM) is lower in “selective drug sensitivity score” value: 11.2 for the first, 2.64 for the second.

Going from CC#CC(=O)N1CC[C@@H](n2c(=O)n(-c3ccc(Oc4ccccc4)cc3)c3c(N)ncnc32)C1 [Tirabrutinib] (top concentration 1000 nM) to CNC(=O)c1ccccc1Nc1cc(Nc2ccc(N3CCOCC3)cc2OC)ncc1C(F)(F)F [VS-4718] (top concentration 10000 nM), the “selective drug sensitivity score” value rises from 0 to 14.

First: CC(C)C[C@@H](C(=O)N[C@H](C(=O)OC1CCCC1)c1ccccc1)[C@H](O)C(=O)NO [Tosedostat] (top concentration 10000 nM)
Second: O=C(CCCCCCC(=O)Nc1ccccc1)NO [Vorinostat] (top concentration 10000 nM)
The “selective drug sensitivity score” value of the first is lower: 6.96 for the first, 10.1 for the second.

Compared with Cc1cccc(-c2[nH]c(CNc3ccccc3F)nc2-c2ccc3ncnn3c2)n1 [Vactosertib (TEW-7197)] (top concentration 2500 nM), O=C(/C=C\n1cnc(-c2cc(C(F)(F)F)cc(C(F)(F)F)c2)n1)NNc1ccccn1 [Verdinexor] (top concentration 1000 nM) is higher in “selective drug sensitivity score” value: -0.5 for the first, 7.54 for the second.

CC[C@@H]1C(=O)N(C)c2cnc(Nc3ccc(C(=O)N[C@H]4CC[C@H](N5CCN(CC6CC6)CC5)CC4)cc3OC)nc2N1C(C)C [Volasertib] (top concentration 1000 nM) was tested, and the “selective drug sensitivity score” value was 16.1.

What follows are molecules tested on PEER in the same assay as above. Details: 72 h.

First: CN(C)Cc1ccc(S(=O)(=O)n2ccc(/C=C/C(=O)NO)c2)cc1 [Resminostat] (top concentration 10000 nM)
Second: CS(=O)(=O)c1ccc(-c2cnc(N)c(C(=O)Nc3ccccc3)n2)cc1 [VE-821] (top concentration 10000 nM)
The “selective drug sensitivity score” value of the first is higher: 8.24 for the first, 0.54 for the second.

Compared with COc1cc(OC)c(/C=C/S(=O)(=O)Cc2ccc(OC)c(NCC(=O)O)c2)c(OC)c1 [Rigosertib] (top concentration 10000 nM), CCS(=O)(=O)c1cccc(-c2cc(C(=O)NC3CCN(C)CC3)c(C)c3[nH]c4ncc(C)cc4c23)c1 [TAK-901] (top concentration 1000 nM) is lower in “selective drug sensitivity score” value: 15.9 for the first, 12.4 for the second.

Compared with COc1ccc(CCc2nc3cc(-c4c(C)noc4C)ccc3n2C[C@H](C)N2CCOCC2)cc1Cl [SGC-CBP30] (top concentration 25000 nM), CNC(=O)c1ccccc1Nc1cc(Nc2ccc(N3CCOCC3)cc2OC)ncc1C(F)(F)F [VS-4718] (top concentration 10000 nM) is lower in “selective drug sensitivity score” value: 4.08 for the first, 3.6 for the second.

First: Nc1nc(NC2CC2)cc(-c2cccc(Cl)c2Cl)n1 [TH588] (top concentration 25000 nM)
Second: Cc1cccc(-c2[nH]c(CNc3ccccc3F)nc2-c2ccc3ncnn3c2)n1 [Vactosertib (TEW-7197)] (top concentration 2500 nM)
The “selective drug sensitivity score” value of the first is higher: 12 for the first, -0.5 for the second.

First: CC(=O)Nc1ccc(C(=O)Nc2ccccc2N)cc1 [Tacedinaline] (top concentration 1000 nM)
Second: O=C(CCCCCCC(=O)Nc1ccccc1)NO [Vorinostat] (top concentration 10000 nM)
The “selective drug sensitivity score” value of the first is lower: 0.68 for the first, 9.7 for the second.

Compared with Cn1ncnc1[C@H]1c2n[nH]c(=O)c3cc(F)cc(c23)N[C@@H]1c1ccc(F)cc1 [Talazoparib] (top concentration 1000 nM), COc1cccc2c1c(O)c(C(=O)N(C)c1ccc(C(F)(F)F)cc1)c(=O)n2C [Tasquinimod] (top concentration 10000 nM) is higher in “selective drug sensitivity score” value: -3.72 for the first, -0.32 for the second.

First: Nc1nc2[nH]cnc2c(=S)[nH]1 [Thioguanine] (top concentration 10000 nM)
Second: CC#CC(=O)N1CC[C@@H](n2c(=O)n(-c3ccc(Oc4ccccc4)cc3)c3c(N)ncnc32)C1 [Tirabrutinib] (top concentration 1000 nM)
The “selective drug sensitivity score” value of the first is higher: 13.1 for the first, 0 for the second.

Compared with CC(C)C[C@@H](C(=O)N[C@H](C(=O)OC1CCCC1)c1ccccc1)[C@H](O)C(=O)NO [Tosedostat] (top concentration 10000 nM), CC[C@@H]1C(=O)N(C)c2cnc(Nc3ccc(C(=O)N[C@H]4CC[C@H](N5CCN(CC6CC6)CC5)CC4)cc3OC)nc2N1C(C)C [Volasertib] (top concentration 1000 nM) is higher in “selective drug sensitivity score” value: 0.06 for the first, 18.7 for the second.

In the case of O=C(/C=C\n1cnc(-c2cc(C(F)(F)F)cc(C(F)(F)F)c2)n1)NNc1ccccn1 [Verdinexor] (top concentration 1000 nM), the “selective drug sensitivity score” value was 5.44.

What follows are molecules tested on COG-LL-317 in the same assay as above. Details: 72 h.

Compared with CN(C)Cc1ccc(S(=O)(=O)n2ccc(/C=C/C(=O)NO)c2)cc1 [Resminostat] (top concentration 10000 nM), CS(=O)(=O)c1ccc(-c2cnc(N)c(C(=O)Nc3ccccc3)n2)cc1 [VE-821] (top concentration 10000 nM) is higher in “selective drug sensitivity score” value: 5.14 for the first, 12.7 for the second.

Compared with COc1cc(OC)c(/C=C/S(=O)(=O)Cc2ccc(OC)c(NCC(=O)O)c2)c(OC)c1 [Rigosertib] (top concentration 10000 nM), CCS(=O)(=O)c1cccc(-c2cc(C(=O)NC3CCN(C)CC3)c(C)c3[nH]c4ncc(C)cc4c23)c1 [TAK-901] (top concentration 1000 nM) is lower in “selective drug sensitivity score” value: 14.3 for the first, 11.7 for the second.

Compared with COc1ccc(CCc2nc3cc(-c4c(C)noc4C)ccc3n2C[C@H](C)N2CCOCC2)cc1Cl [SGC-CBP30] (top concentration 25000 nM), CNC(=O)c1ccccc1Nc1cc(Nc2ccc(N3CCOCC3)cc2OC)ncc1C(F)(F)F [VS-4718] (top concentration 10000 nM) is lower in “selective drug sensitivity score” value: 5.98 for the first, -0.8 for the second.

First: Nc1nc(NC2CC2)cc(-c2cccc(Cl)c2Cl)n1 [TH588] (top concentration 25000 nM)
Second: Cc1cccc(-c2[nH]c(CNc3ccccc3F)nc2-c2ccc3ncnn3c2)n1 [Vactosertib (TEW-7197)] (top concentration 2500 nM)
The “selective drug sensitivity score” value of the first is higher: 7.72 for the first, -0.3 for the second.

First: CC(=O)Nc1ccc(C(=O)Nc2ccccc2N)cc1 [Tacedinaline] (top concentration 1000 nM)
Second: O=C(CCCCCCC(=O)Nc1ccccc1)NO [Vorinostat] (top concentration 10000 nM)
The “selective drug sensitivity score” value of the first is lower: -0.02 for the first, 8.2 for the second.

Compared with Cn1ncnc1[C@H]1c2n[nH]c(=O)c3cc(F)cc(c23)N[C@@H]1c1ccc(F)cc1 [Talazoparib] (top concentration 1000 nM), COc1cccc2c1c(O)c(C(=O)N(C)c1ccc(C(F)(F)F)cc1)c(=O)n2C [Tasquinimod] (top concentration 10000 nM) is lower in “selective drug sensitivity score” value: 19.7 for the first, 0.28 for the second.

First: Nc1nc2[nH]cnc2c(=S)[nH]1 [Thioguanine] (top concentration 10000 nM)
Second: CC#CC(=O)N1CC[C@@H](n2c(=O)n(-c3ccc(Oc4ccccc4)cc3)c3c(N)ncnc32)C1 [Tirabrutinib] (top concentration 1000 nM)
The “selective drug sensitivity score” value of the first is higher: 23 for the first, 0 for the second.

Compared with CC(C)C[C@@H](C(=O)N[C@H](C(=O)OC1CCCC1)c1ccccc1)[C@H](O)C(=O)NO [Tosedostat] (top concentration 10000 nM), CC[C@@H]1C(=O)N(C)c2cnc(Nc3ccc(C(=O)N[C@H]4CC[C@H](N5CCN(CC6CC6)CC5)CC4)cc3OC)nc2N1C(C)C [Volasertib] (top concentration 1000 nM) is higher in “selective drug sensitivity score” value: 14.9 for the first, 16.7 for the second.

For O=C(/C=C\n1cnc(-c2cc(C(F)(F)F)cc(C(F)(F)F)c2)n1)NNc1ccccn1 [Verdinexor] (top concentration 1000 nM), the “selective drug sensitivity score” value was 12.5.
